These are literature values, as cited in patent publication US7723070B2, “Overexpression of aminoacyl-tRNA synthetases for efficient production of engineered proteins containing amino acid analogues” (California Institute of Technology, priority 2000, dated 2010).

Usually Km stands for the substrate concentration at which the rate is half of its maximum.

For data set [1], the target named is T1, methionyl tRNA synthetase (MetRS) (Escherichia coli, UniProt P00959).
T1 sequence (P00959 1-548 limits assumed): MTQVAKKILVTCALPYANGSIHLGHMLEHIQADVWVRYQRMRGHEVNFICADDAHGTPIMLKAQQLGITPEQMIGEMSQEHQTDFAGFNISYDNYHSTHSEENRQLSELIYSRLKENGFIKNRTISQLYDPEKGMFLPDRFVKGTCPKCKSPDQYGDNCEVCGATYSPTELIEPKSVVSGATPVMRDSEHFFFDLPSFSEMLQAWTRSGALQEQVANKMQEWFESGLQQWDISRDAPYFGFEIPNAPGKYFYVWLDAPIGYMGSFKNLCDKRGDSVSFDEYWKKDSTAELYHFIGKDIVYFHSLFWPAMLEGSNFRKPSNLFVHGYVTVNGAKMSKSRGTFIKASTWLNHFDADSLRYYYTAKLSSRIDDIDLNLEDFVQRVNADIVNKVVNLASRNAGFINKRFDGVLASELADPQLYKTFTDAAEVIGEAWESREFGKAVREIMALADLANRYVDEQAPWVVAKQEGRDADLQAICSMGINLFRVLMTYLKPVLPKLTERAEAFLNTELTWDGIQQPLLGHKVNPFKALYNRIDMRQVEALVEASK
As to conditions: cited from earlier work.

Another data set concerns E. coli cells. Conditions: antagonist for methionine; cited from earlier work.

With `CSCC[C@H](N)C(=O)O` [Analogue 1, L-methionine, reference compound], in data set [1], the “kcat, literature value” was 13.5 s⁻¹. Further, in data set [1] (read-out: Km, previously reported, literature value), the Michaelis-Menten constant (Km) was 24 ± 2 µM.

For `C/C=C\CC(N)C(=O)O` (racemic) [Analogue 4, cis-2-amino-4-hexenoic acid], the “effect on growth of E. coli cells” value in the data set with E. coli cells is recorded as “inhibiting the growth”.
